Source: patent US9745554B2, “Method of improving cell proliferation of pancreatic progenitor cells in a pancreatic cell culture” (ReNeuron, Inc., priority 2006, dated 2017)

Experiments:
[1] = tested on: caspases 3 and 7; test: Apo-ONE caspase 3/7 assay on cell lysates; assay type: cell-based, human; details: FIG. 1
Protocol: In some embodiments, the presence of caspases 3 and 7 and the extent of cell death is measured using the APO-ONE™ caspase assay (see, e.g., FIG. 1) according to the manufacturers instructions (Promega Inc., Madison, Wis.).
One of the hallmarks of apoptosis is caspase activation. The downstream caspases 3 and 7 have a consensus cleavage sequence DEVD (SEQ ID NO: 1). For determination of the extent of apoptosis in our cultures, we used the Apo-ONE assay system (Promega), according to the manufacturer's instructions (FIG. 1). Cells were plated on 96 well plates, and cell lysates were prepared in a buffer that supports caspase activity (Promega, Madison, Wis.) and analyzed on a fluorescent plate reader using the Apo-ONE caspase 3/7 fluorescent assay (Promega, Madison, Wis.) at an excitation wavelength was 485 run and an emission wavelength was 530 nm.

[2] = tested on: human pancreatic cells; test: Real-time quantitative RT-PCR of endocrine and progenitor marker gene expression; assay type: cell-based; details: additive in control media; pancreatic endocrine cultures; FIG. 7
Protocol: To determine the effects of survival media on endocrine lineage cells, we studied the gene expression of our expanded pancreatic cells by quantitative RT-PCR as shown for example in FIG. 6. Total cellular RNA was isolated from cells using Nucleospin RNA II kits (BD Biosciences, Inc.). Reverse transcription was performed using 5 μg of total RNA M-MLV reverse transcriptase (Invitrogen), 10 mM DTT, 0.5 mM dNTP (Sigma, St. Louis, Mo.), 25 ng/μl of Oligo(dt) 12-18 primer (Sigma), RNase inhibitor (Sigma) and 1× First-strand buffer (Invitrogen). The mixture was heated to 65° C. for 5 minutes. Reverse transcriptase was added and incubated at 37° C. for 60 minutes. Reactions were terminated and real-time quantitative PCR was performed according to the manufacturer's instructions using Light Cycler machines 1.0 and 2.0 (Roche) in the presence of […] of 5-fold diluted cDNA. Insulin, glucagon, Somatostatin, PDX-1, Neuro-D1, CK-19, amylase, HNF3-beta, and β-actin primer sequences were designed based on published human mRNA sequences. Data for mRNA was presented according to calculations using absolute quantification methods, or as a fold increase over the control. All expression levels of the different genes were normalized to β-actin. […]

[3] = tested on: cultured pancreatic cells
Protocol: At least one exogenous growth factor is added to the survival media in an amount sufficient to increase the level of activated Akt in the cultured cells. Typically, the growth factors are added in a concentration range from about 10 ng/ml to about 100 ng/ml of culture media (e.g., 10, 15, 20, 30, 40, 50, 60, 70, 80, 90, 100 ng/ml of culture media). Non-limiting exemplary growth factors suitable for use with the present invention may include members of the IGF, EGF, and PDGF families.

| Compound | caspase activation in pancreatic cells ([1]; 1 μM inhibitor, P0 adherent pancreatic cells) | concentration dependence of caspase inhibition ([1]; three independent experiments) | insulin mRNA normalized to β-actin mRNA, fold increase over control media alone [2] | works as exogenous growth factor with the invention [3] |
| --- | --- | --- | --- | --- |
| CC(C)C(NC(=O)c1ccc2ccccc2n1)C(=O)NC(CC(=O)O)C(=O)COc1c(F)cccc1F (stereo not shown) [OPH-109, non-O-methylated Q-VD-OPH] | completely reversed the caspase activation | concentration dependence of caspase inhibition | 10 fold | – |
| VEGF | – | – | – | did not work |
